# PubChem BioAssay AID292 (DTP/NCI, 2004)
# Values joined by “and” are separate entries in the source; they are usually repeats but may differ in a detail not shown here. Equal entries are not always repeated. Toxic doses and inconclusive results are not listed.
# Tested on: B6C3F1 mice, ip Sarcoma M5076, median survival T/C
# Assay: NCI In Vivo Anticancer Drug Screen. Data for tumor model Sarcoma M5076 (intraperitoneal) in B6C3F1 mice
# Settings: endpoint: median survival time, higher = longer survival
# How it was run: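 Survival measured in treated (T) and vehicle control (C) mice with transplantable tumour; result given as T divided by C.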
# [1] = dose: 50.0 mg/kg/injection, schedule: Q04DX004 (ip), vehicle: Klucel (hydroxypropylcellulose) (HPC)
# [2] = dose: 100.0 mg/kg/injection, schedule: Q04DX004 (ip), vehicle: Klucel (hydroxypropylcellulose) (HPC)
# [3] = dose: 200.0 mg/kg/injection, schedule: Q04DX004 (ip), vehicle: Klucel (hydroxypropylcellulose) (HPC)
# [4] = dose: 400.0 mg/kg/injection, schedule: Q04DX004 (ip), vehicle: Klucel (hydroxypropylcellulose) (HPC)
# [5] = dose: 800.0 mg/kg/injection, schedule: Q04DX004 (ip), vehicle: Klucel (hydroxypropylcellulose) (HPC)
compound,measurement,setting,value
C=CC1(C)CC(=O)C2(O)C(C)(O1)C(OC(C)=O)C(O)C1C(C)(C)CCC(O)C12C (centres undefined),T/C,"dose: 2.0 mg/kg/injection, schedule: Q04DX004 (ip), vehicle: DMSO",98 % of control
same,T/C,"dose: 4.0 mg/kg/injection, schedule: Q04DX004 (ip), vehicle: DMSO",104 % of control
same,T/C,"dose: 8.0 mg/kg/injection, schedule: Q04DX004 (ip), vehicle: DMSO",98 % of control
same,T/C,"dose: 16.0 mg/kg/injection, schedule: Q04DX004 (ip), vehicle: DMSO",96 % of control and 101 % of control
same,T/C,"dose: 32.0 mg/kg/injection, schedule: Q04DX004 (ip), vehicle: DMSO",95 % of control and 107 % of control
CC(=O)[O][Pb]([O]C(C)=O)([c]1ccccc1)[c]1ccccc1,T/C,[1],100 % of control
same,T/C,[2],104 % of control
same,T/C,[3],99 % of control
same,T/C,[4],97 % of control
same,T/C,[5],114 % of control
COC(=O)N1C2CCCCC2=NN(c2ccccc2)N1C(=O)OC (centres undefined),T/C,[1],96 % of control
same,T/C,[2],101 % of control
same,T/C,[3],99 % of control
same,T/C,[4],95 % of control
same,T/C,[5],100 % of control
C=C(Cl)C(=NC(C)(C)C)Nc1ccccc1C,T/C,"dose: 3.0 mg/kg/injection, schedule: Q04DX004 (ip), vehicle: Klucel (hydroxypropylcellulose) (HPC)",98 % of control
same,T/C,"dose: 6.0 mg/kg/injection, schedule: Q04DX004 (ip), vehicle: Klucel (hydroxypropylcellulose) (HPC)",116 % of control
same,T/C,"dose: 6.25 mg/kg/injection, schedule: Q04DX004 (ip), vehicle: Klucel (hydroxypropylcellulose) (HPC)",108 % of control
same,T/C,"dose: 12.0 mg/kg/injection, schedule: Q04DX004 (ip), vehicle: Klucel (hydroxypropylcellulose) (HPC)",103 % of control
same,T/C,"dose: 24.0 mg/kg/injection, schedule: Q04DX004 (ip), vehicle: Klucel (hydroxypropylcellulose) (HPC)",98 % of control
same,T/C,"dose: 25.0 mg/kg/injection, schedule: Q04DX004 (ip), vehicle: Klucel (hydroxypropylcellulose) (HPC)",117 % of control
same,T/C,"dose: 48.0 mg/kg/injection, schedule: Q04DX004 (ip), vehicle: Klucel (hydroxypropylcellulose) (HPC)",104 % of control
O=C1CN(CCN2CC(=O)N(CN3CCOCC3)C(=O)C2)CC(=O)N1CN1CCOCC1,T/C,"dose: 50.0 mg/kg/injection, schedule: Q04DX004 (ip), vehicle: water",97 % of control
same,T/C,"dose: 100.0 mg/kg/injection, schedule: Q04DX004 (ip), vehicle: water",109 % of control
NC(=S)N/N=C/c1cc(=O)c2cc(Cl)ccc2o1,T/C,"dose: 75.0 mg/kg/injection, schedule: Q04DX004 (ip), vehicle: DMSO",92 % of control
O=S(=O)(O)SCCNCCCCC1CCCCC1,T/C,"dose: 3.75 mg/kg/injection, schedule: Q04DX004 (ip), vehicle: saline with Tween-80",100 % of control
same,T/C,"dose: 7.5 mg/kg/injection, schedule: Q04DX004 (ip), vehicle: saline with Tween-80",99 % of control
same,T/C,"dose: 15.0 mg/kg/injection, schedule: Q04DX004 (ip), vehicle: saline with Tween-80",101 % of control
CCCCCn1c(C)cc(/C=C\c2ccc3cc(C)ccc3[n+]2C)c1C,T/C,"dose: 1.0 mg/kg/injection, schedule: Q04DX004 (ip), vehicle: saline",103 % of control
same,T/C,"dose: 2.0 mg/kg/injection, schedule: Q04DX004 (ip), vehicle: saline",111 % of control
same,T/C,"dose: 4.0 mg/kg/injection, schedule: Q04DX004 (ip), vehicle: saline",111 % of control
same,T/C,"dose: 8.0 mg/kg/injection, schedule: Q04DX004 (ip), vehicle: saline",114 % of control
CC(=O)OC1OC(=O)C(C)(C(C)=O)C1C (centres undefined),T/C,"dose: 2.5 mg/kg/injection, schedule: Q04DX004 (ip), vehicle: distilled water + alcohol",100 % of control
same,T/C,"dose: 5.0 mg/kg/injection, schedule: Q04DX004 (ip), vehicle: distilled water + alcohol",105 % of control
same,T/C,"dose: 10.0 mg/kg/injection, schedule: Q04DX004 (ip), vehicle: distilled water + alcohol",104 % of control
same,T/C,"dose: 20.0 mg/kg/injection, schedule: Q04DX004 (ip), vehicle: distilled water + alcohol",104 % of control
same,T/C,"dose: 40.0 mg/kg/injection, schedule: Q04DX004 (ip), vehicle: distilled water + alcohol",95 % of control
O=C[C@@H](CO)O[C@H](C=O)c1c[nH]c(=O)[nH]c1=O,T/C,"dose: 12.5 mg/kg/injection, schedule: Q04DX004 (ip), vehicle: saline",111 % of control and 121 % of control
same,T/C,"dose: 18.0 mg/kg/injection, schedule: Q04DX004 (ip), vehicle: saline",110 % of control
same,T/C,"dose: 25.0 mg/kg/injection, schedule: Q04DX004 (ip), vehicle: saline",114 % of control and 123 % of control
same,T/C,"dose: 30.0 mg/kg/injection, schedule: Q04DX004 (ip), vehicle: saline",118 % of control
same,T/C,"dose: 50.0 mg/kg/injection, schedule: Q04DX004 (ip), vehicle: saline",123 % of control
same,T/C,"dose: 100.0 mg/kg/injection, schedule: Q04DX004 (ip), vehicle: saline",165 % of control
same,T/C,"dose: 138.8 mg/kg/injection, schedule: Q04DX004 (ip), vehicle: saline",153 % of control
O=C(Nc1cccc2ccccc12)C1C(=O)C(=O)N(c2cccc3ccccc23)C1=O (centres undefined),T/C,"dose: 37.5 mg/kg/injection, schedule: Q04DX004 (ip), vehicle: Klucel (hydroxypropylcellulose) (HPC)",105 % of control
same,T/C,"dose: 75.0 mg/kg/injection, schedule: Q04DX004 (ip), vehicle: Klucel (hydroxypropylcellulose) (HPC)",104 % of control
same,T/C,"dose: 150.0 mg/kg/injection, schedule: Q04DX004 (ip), vehicle: Klucel (hydroxypropylcellulose) (HPC)",88 % of control
same,T/C,"dose: 300.0 mg/kg/injection, schedule: Q04DX004 (ip), vehicle: Klucel (hydroxypropylcellulose) (HPC)",91 % of control
O=C1c2c(O)cccc2-c2nn(CCNCCO)c3ccc(NCCNCCO)c1c23,T/C,"dose: 2.75 mg/kg/injection, schedule: Q04DX004 (ip), vehicle: water",169 % of control
same,T/C,"dose: 5.5 mg/kg/injection, schedule: Q04DX004 (ip), vehicle: water",233 % of control and 263 % of control
same,T/C,"dose: 11.0 mg/kg/injection, schedule: Q04DX004 (ip), vehicle: water",243 % of control
same,T/C,"dose: 22.0 mg/kg/injection, schedule: Q04DX004 (ip), vehicle: water",109 % of control
CC[C@@H](C)[C@@H]1NC(=O)C(NC(=O)C(CC(C)C)N(C)C(=O)C2CCCN2C(=O)C(C)O)C(C)OC(=O)C(Cc2ccc(OC)cc2)N(C)C(=O)C2CCCN2C(=O)C(CC(C)C)NC(=O)C(C)C(=O)C(C(C)C)OC(=O)C[C@H]1O (some centres undefined),T/C,"dose: 0.13 mg/kg/injection, schedule: Q04DX004 (ip), vehicle: distilled water + alcohol",120 % of control
same,T/C,"dose: 0.36 mg/kg/injection, schedule: Q04DX004 (ip), vehicle: distilled water + alcohol",171 % of control
same,T/C,"dose: 0.6 mg/kg/injection, schedule: Q04DX004 (ip), vehicle: distilled water + alcohol",209 % of control
same,T/C,"dose: 45.0 micrograms/kg/injection, schedule: Q04DX004 (ip), vehicle: distilled water + alcohol",117 % of control
same,T/C,"dose: 90.0 micrograms/kg/injection, schedule: Q04DX004 (ip), vehicle: distilled water + alcohol",115 % of control
NC(Cn1ccc(=O)c(O)c1)C(=O)O (centres undefined),T/C,"dose: 75.0 mg/kg/injection, schedule: Q04DX004 (ip), vehicle: saline",100 % of control
same,T/C,"dose: 150.0 mg/kg/injection, schedule: Q04DX004 (ip), vehicle: saline",109 % of control
same,T/C,"dose: 300.0 mg/kg/injection, schedule: Q04DX004 (ip), vehicle: saline",103 % of control
same,T/C,"dose: 600.0 mg/kg/injection, schedule: Q04DX004 (ip), vehicle: saline",118 % of control
same,T/C,"dose: 1200.0 mg/kg/injection, schedule: Q04DX004 (ip), vehicle: saline",113 % of control
COc1cc(C2CC(C)(O)Oc3cc4c(cc32)OCO4)cc(OC)c1OC (centres undefined),T/C,"dose: 50.0 mg/kg/injection, schedule: Q04DX004 (ip), vehicle: saline with Tween-80",115 % of control
Nc1nncs1,T/C,"dose: 100.0 mg/kg/injection, schedule: Q04DX004 (ip), vehicle: saline with Tween-80",111 % of control
same,T/C,"dose: 100.0 mg/kg/injection, schedule: Q04DX005 (ip), vehicle: saline with Tween-80",112 % of control
same,T/C,"dose: 100.0 mg/kg/injection, schedule: Q04DX005 (ip), vehicle: saline",114 % of control and 116 % of control
same,T/C,"dose: 200.0 mg/kg/injection, schedule: Q04DX004 (ip), vehicle: saline with Tween-80",112 % of control
same,T/C,"dose: 200.0 mg/kg/injection, schedule: Q04DX005 (ip), vehicle: saline with Tween-80",112 % of control
same,T/C,"dose: 200.0 mg/kg/injection, schedule: Q04DX005 (ip), vehicle: saline",109 % of control and 121 % of control
same,T/C,"dose: 400.0 mg/kg/injection, schedule: Q04DX004 (ip), vehicle: saline with Tween-80",121 % of control
same,T/C,"dose: 400.0 mg/kg/injection, schedule: Q04DX005 (ip), vehicle: saline",95 % of control
same,T/C,"dose: 800.0 mg/kg/injection, schedule: Q04DX005 (ip), vehicle: saline",151 % of control
COc1ccccc1C1C(C#N)C(=O)NC(=O)C1C#N (centres undefined),T/C,[1],100 % of control
same,T/C,[2],100 % of control
same,T/C,[3],95 % of control
same,T/C,[4],102 % of control
CCOC(=O)C(N)CSC(=O)NC (centres undefined),T/C,"dose: 130.0 mg/kg/injection, schedule: Q04DX004 (ip), vehicle: saline",105 % of control
same,T/C,"dose: 216.0 mg/kg/injection, schedule: Q04DX004 (ip), vehicle: saline",111 % of control and 119 % of control
same,T/C,"dose: 360.0 mg/kg/injection, schedule: Q04DX004 (ip), vehicle: saline",115 % of control and 122 % of control
